Experimental findings from ChEMBL document CHEMBL1134822, “Trifluoromethyl-containing 3-alkoxymethyl- and 3-aryloxymethyl-2-pyridinones are potent inhibitors of HIV-1 non-nucleoside reverse transcriptase” (Bioorg Med Chem Lett, 2001) are described below.

Bounds are passed on as bounds.

Assay [1] has as its system Human immunodeficiency virus 1. In words: Antiviral activity against HIV-1 in MT-2 (human leukemia) cells in vitro. The class given is functional.
In assay [2] the target is Human immunodeficiency virus type 1 reverse transcriptase (Human immunodeficiency virus 1, UniProt Q72547). In words: Inhibition of the NNRTI HIV-1 enzyme by 50% using enzyme assay.
Assay [3] has as its system HIV-1 reverse transcriptase (Human immunodeficiency virus 1). Kind of assay: Compound was evaluated for its ability to inhibit the mutant K103N V1081NNRTI HIV-1 enzyme.
Assay [4] shares this test system. Kind of assay: Compound was evaluated for its ability to inhibit the mutant K103N NNRTI HIV-1 enzyme.
Assay [5] concerns Human immunodeficiency virus type 1 reverse transcriptase (Human immunodeficiency virus 1), Q72547 [K103N,P225H].
In assay [6] the test system is HIV-1 reverse transcriptase (Human immunodeficiency virus 1). In words: Compound was evaluated for its ability to inhibit the NNRTI HIV-1 enzyme by 90% using whole cell assay.
The test system is the same in assay [7]. Kind of assay: Compound was evaluated for its ability to inhibit the mutant K103N L1001 NNRTI HIV-1 enzyme.

The IC90 is the concentration at which the effect reaches the 90% level. High values mean weaker potency, low ones greater potency. The term IC50 denotes the concentration that inhibits the measured activity by half. On to `CCc1cc(C(C#CC2CC2)(OCc2c(F)cccc2F)C(F)(F)F)c(O)nc1C` (stereo not given), for which the IC90 in assay [1] was 49 nM. The IC50 in assay [2] was determined as 613 nM.
Turning to `CCc1cc(C(C#CC2CC2)(OCc2c(Cl)cccc2Cl)C(F)(F)F)c(O)nc1C` (stereo not given), the IC90 in assay [1] was determined as 157 nM. This compound also came in with a half-maximal inhibitory concentration (IC50) in assay [2] of 41100 nM.
For the compound `Oc1ncccc1C(C#CC1CC1)(OCc1ccncc1)C(F)(F)F` (stereo not given), in assay [1], the 90% effect level (IC90) was put at 431 nM. Also, in assay [2], half-maximal inhibition (IC50) was put at 8110 nM.
`O=C1Nc2ccc(Cl)cc2[C@@](C#CC2CC2)(C(F)(F)F)N1`: the IC90 in assay [3] is 38 nM; in assay [4], 10 nM; in assay [5], 73 nM; in assay [6] it was 2 nM.
Turning to `CCCOC(C#CC1CC1)(c1cc(CC)c(C)nc1O)C(F)(F)F` (stereo not given), the IC90 in assay [1] worked out at 32 nM. This compound also had an IC50 in assay [2] of 105 nM.
Consider `CCc1cc(C(C#CC2CC2)(OCc2ccc(Cl)cc2Cl)C(F)(F)F)c(O)nc1C` (stereo not given), for which the IC90 in assay [1] was 190 nM. In assay [2], this compound yielded an IC50 of 2700 nM.
`CCCCOC(C#CC1CC1)(c1cc(CC)c(C)nc1O)C(F)(F)F` (stereo not given) had an IC90 in assay [1] of 42 nM. In assay [2], this compound showed an IC50 of 129 nM.
As for `CCc1cc(NCc2nc3c(Cl)ccc(Cl)c3o2)c(O)nc1C` [L-697661], the 90% effect level in assay [1] (IC90) was put at 50 nM.
As for `Oc1ncccc1C(C#CC1CC1)(OCc1ccccc1)C(F)(F)F` (stereo not given), the 90% effect level in assay [1] (IC90) was put at 182 nM. In assay [2], it took 11800 nM to reach half-maximal inhibition (IC50).
In the same order, the values of `Oc1ncccc1C(C#CC1CC1)(Oc1cccc(Oc2ccccc2)c1)C(F)(F)F` (stereo not given) are greater than 1140 nM and 24300 nM.
`CCc1cc(C(C#CC2CC2)(OCC2CC2)C(F)(F)F)c(O)nc1C` (stereo not given) displayed an IC90 in assay [1] of 37 nM. In assay [2], this compound had an IC50 of 188 nM.
As to `Oc1ncccc1C(C#CC1CC1)(OCc1cccnc1)C(F)(F)F` (stereo not given), the IC90 in assay [1] was greater than 1440 nM. The compound also registered an IC50 in assay [2] of 25600 nM.
For `CCc1cc(C(C#CC2CC2)(OCc2c(F)cccc2Cl)C(F)(F)F)c(O)nc1C` (stereo not given), in that order: 61 nM and 6090 nM.
For `CCc1cc(C(C#CC2CC2)(OCc2ccccc2)C(F)(F)F)c(O)nc1C` (stereo not given), the IC90 is 1210 nM in assay [3]; 113 nM in assay [4]; 283 nM in assay [5]; 668 nM in assay [7]; 46 nM in assay [6].
Take `Oc1ncccc1C(/C=C/c1ccccc1)(OCc1ccccc1)C(F)(F)F` (stereo not given): the IC90 in assay [1] was greater than 1300 nM. In assay [2], the IC50 was determined as 43900 nM.
Regarding `Oc1nc2ccccc2cc1C(C#CC1CC1)(OCc1ccccc1)C(F)(F)F` (stereo not given), the IC90 in assay [1] came out at 579 nM. Moreover, in assay [2], 36000 nM corresponded to half-maximal inhibition (IC50).
`Oc1ncccc1C(C#CC1CC1)(OCc1ccccn1)C(F)(F)F` (stereo not given) gave an IC90 in assay [1] of 1010 nM. In assay [2], this compound had an IC50 of 26000 nM.
In the same order, the values of `CCc1cc(C(C#CC2CC2)(OCc2cc(OC)cc(OC)c2)C(F)(F)F)c(O)nc1C` (stereo not given) are 579 nM and 3840 nM.
On to `CCc1cc(C(C#CC2CC2)(OCc2c(F)cccc2OC)C(F)(F)F)c(O)nc1C` (stereo not given), for which the IC90 in assay [1] came to 160 nM. In assay [2], this compound registered an IC50 of 1950 nM.
Consider `CCc1cc(C(C#CC2CC2)(OC)C(F)(F)F)c(O)nc1C` (stereo not given), for which it took 201 nM to reach the 90% level in assay [1] (IC90). Further, the midpoint of inhibition in assay [2], the IC50, lay at 770 nM.
In the case of `O=C1Nc2ccc(Cl)cc2[C@@](/C=C/C2CC2)(C(F)(F)F)N1`, the IC90 is 90 nM in assay [3] and 140 nM in assay [5].
Take `CCc1cc(C(C#CC2CC2)(OCC#N)C(F)(F)F)c(O)nc1C` (stereo not given): the IC90 in assay [1] amounted to 1400 nM. The compound also returned an IC50 in assay [2] of 1840 nM.
For `Oc1ncccc1C(/C=C/C1CC1)(OCc1ccccc1)C(F)(F)F` (stereo not given), in that order: greater than 1400 nM and 16700 nM.
`CCOC(C#CC1CC1)(c1cc(CC)c(C)nc1O)C(F)(F)F` (stereo not given) returned an IC90 in assay [1] of 95 nM. The compound also displayed an IC50 in assay [2] of 183 nM.
`Oc1ncccc1C(C#Cc1ccccc1)(OCc1ccccc1)C(F)(F)F` (stereo not given) registered an IC90 in assay [1] greater than 1300 nM. Also, inhibition in assay [2] was half-maximal at 11700 nM (IC50).
Compound `CCc1cc(C(C#CC2CC2)(OCc2ccccc2)C(F)(F)F)c(=O)[nH]c1C` (stereo not given) showed an IC50 in assay [2] of 1350 nM.
